The source of these data is patent US12006355B2, “Nanobodies against cystic fibrosis transmembrane conductance regulator (CFTR) inhibitory factor (Cif)” (priority 2017, dated 2024).

Each structure is given as a SMILES string. “And” between values parts separate entries of the source, which are not always exact repeats. Equal values may be shown once. Where only a bound is given, the exact number is not on record here.

As usually defined, the Kd is a measure of binding affinity in units of concentration. Higher therefore signals lower affinity. The EC50 is the concentration at which the effect is half-maximal. A lower EC50 goes with an effect from little substance. The IC50 is the point on the concentration scale where inhibition reaches its midpoint. Low readings indicate inhibition by little substance, high ones a need for much substance.

The target of test [1] is T1, Cif (Pseudomonas aeruginosa, UniProt A0A0H2ZD27).
T1 construct: made in house
As to the kind of experiment: Octet bio-layer interferometry. Format: binding. Particulars: steady state analysis, 30° C. On the procedure: Octet Bio-Layer Interferometry: KD of Cif and their inhibitors was determined by Bio-Layer Interferometry using an Octet Red instrument (ForteBio). Recombinant Cif-His was prepared as described previously (20,29). Stocks of purified proteins were stored at 4° C. until used.
Background: In BLI a coated tip is dipped into the sample, and binding shifts an interference pattern.

Test [2] deals with T1, Cif. The experiment in a line: Competitive or displacement sandwich ELISA (dsELISA) with Nb 219. It counts as binding. The method, then: 2). Competitive or Displacement Sandwich assay. A 96-well plate was coated with pAb at 3 μg/mL, 100 μL per well at RT for 1 h. The plate was blocked with 1% skimmed milk in PBST at RT for at least 2 h. Cif in PBS was loaded at 20 ng/mL, 100 μL/well and incubated for 1 h at RT. Following 5 times wash with PBST, a serial dilution of small molecule synthetic inhibitors in PBS containing 20% methanol at 50 μL/well was loaded, followed by 50 μL/well of VHH at 0.1 μg/mL (or 5 ng/well) in PBS and incubated for 1 h at RT. Mouse anti-HA-HRP conjugate was added at 100 μl/well in a 1:3000 dilution as instructed by manufacturer. The plate was incubated for 1h at RT and washed 5 times. The plate was developed for 10 min with substrate solution added at 100 μl/well. The reaction was stopped by addition of 2M H2SO4 (50 μl/well) and absorbance was read at 450 nm. SigmaPlot 11.0 software was used for curve fitting and data analysis.
Development of nanobody-based screening assay. […] In this assay, the plate was coated with polyclonal anti-Cif antibody (pAb) that captured Cif-protein. Inhibitory anti-Cif Nb in role of a reporter was added at constant concentration together with a serial dilution of a tested inhibitor. […] In this assay, the amount of anti-Cif pAb loaded in the plate was optimized first. […] Second, the amount of Cif-protein captured on pAb was optimized. […] Both nanobodies 113 and 219 were evaluated in the inhibitory assay.

Test [3] addresses T1, Cif. The experiment in a line: biochemical. Conditions: Fluorescent assay IC50, Table 7, small molecule inhibitors. The method, then:
Fluorescent-based Cif Inhibitory assay. Activity of enzyme was measured using a sensitive fluorescent-based assay similar to the method previously described for other EHs (29,30). Cyano(6-methoxynaphthalen-2-yl)methyl glycidyl carbonate (CMNGC) was used as a fluorescent reporter substrate. […] A schematic of the assay is depicted in FIG. 1.
Reported IC50 values are the average of triplicates with at least two data points above and at least two below the IC50. […] Control experiments without Cif (inhibitor/VHH and substrate) were used to evaluate the intrinsic fluorescence of inhibitors.

T1 sequence (A0A0H2ZD27 25-319 limits assumed): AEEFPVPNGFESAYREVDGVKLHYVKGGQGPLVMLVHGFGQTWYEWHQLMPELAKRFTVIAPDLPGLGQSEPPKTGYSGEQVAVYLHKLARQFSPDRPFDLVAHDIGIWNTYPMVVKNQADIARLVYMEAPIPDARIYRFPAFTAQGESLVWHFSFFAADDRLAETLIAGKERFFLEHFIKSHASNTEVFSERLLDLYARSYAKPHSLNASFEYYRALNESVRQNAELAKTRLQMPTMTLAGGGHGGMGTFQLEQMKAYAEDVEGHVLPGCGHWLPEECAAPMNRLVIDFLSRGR

In the case of `CCC(=O)Nc1cc(Cl)c(Oc2ccc(O)c(-c3ccc(C(N)=O)c(F)c3)c2)c(Cl)c1` [Compound 8, 5′-(2,6-dichloro-4-propionamidophenoxy)-3-fluoro-2′-hydroxy-[1,1′-biphenyl]-4-carboxamide], the Kd on Cif [1] is 0.16 µM and 0.2 µM. A half-maximal effect on Cif [2] (EC50) was put at 0.2 µM. In addition, the “fold more potent than 8c” value on Cif [2] (nanobody-based inhibitory sandwich ELISA) was determined as 1 fold. Further, the 50% inhibitory concentration (IC50) against Cif [3] is ~0.5 µM and 0.47 µM.

On to `O=C(O)CC(=O)Nc1cc(Cl)c(Oc2ccc(O)cc2)c(Cl)c1` [Compound 1, 3-((3,5-dichloro-4-(4-hydroxyphenoxy)phenyl)amino)-3-oxopropanoic acid, reference compound], for which the 50% effective concentration (EC50) at Cif [2] is above 200 µM. The compound further had an IC50 against Cif [3] above 50 µM.

For `NC(=O)c1ccc(-c2cc(Oc3c(Cl)cc(N)cc3Cl)ccc2O)cc1` [Compound 7, 5′-(4-amino-2,6-dichlorophenoxy)-2′-hydroxy-[1,1′-biphenyl]-4-carboxamide], at Cif [1], the affinity, expressed as Kd, was 0.9 µM. This compound came in with an EC50 at Cif [2] of 0.7 µM. The half-maximal inhibitory concentration (IC50) at Cif [3] was ~0.5 µM and 0.55 µM.
